Measurements taken from ChEMBL document CHEMBL1201862, “PubChem BioAssay data set” (2004).
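Where inhibition never reached the appropriate level, the endpoint shown equals the highest concentration tested. Otherwise, values were interpolated linearly from a five-concentration, 48-hour dose response in 96-well plates. At the GI50, growth is halved.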 Calls of active or inactive are those of the source. Rule as the data show it: active = GI50 up to about 1.1 µM and inactive = higher.

Legend:
Assay in all cases: inhibition of tumour cell growth, NCI panel, 48 h
[1] = tested on: HT-29
[2] = tested on: SF-295
[3] = tested on: MCF7
[4] = tested on: SK-MEL-28
[5] = tested on: HCT-116
[6] = tested on: SK-MEL-5
[7] = tested on: NCI/ADR-RES
[8] = tested on: OVCAR-4
[9] = tested on: MOLT-4
[10] = tested on: SF-539
[11] = tested on: CAKI-1
[12] = tested on: HOP-92
[13] = tested on: ACHN
[14] = tested on: OVCAR-5
[15] = tested on: SNB-19
[16] = tested on: SK-MEL-2
[17] = tested on: EKVX
[18] = tested on: COLO 205
[19] = tested on: UACC-257
[20] = tested on: SF-268
[21] = tested on: OVCAR-8
[22] = tested on: LOX IMVI
[23] = tested on: MDA-MB-231
[24] = tested on: NCI-H522
[25] = tested on: IGROV-1
[26] = tested on: RPMI-8226
[27] = tested on: HOP-62
[28] = tested on: U-251
[29] = tested on: NCI-H23
[30] = tested on: HCC 2998
[31] = tested on: RXF 393
[32] = tested on: OVCAR-3
[33] = tested on: T47D
[34] = tested on: A549
[35] = tested on: NCI-H460
[36] = tested on: HL-60
[37] = tested on: HCT-15
[38] = tested on: M14
[39] = tested on: K562
[40] = tested on: Hs-578T
[41] = tested on: MDA-N
[42] = tested on: UACC-62
[43] = tested on: MDA-MB-435
[44] = tested on: SN12C
[45] = tested on: TK-10
[46] = tested on: DU-145
[47] = tested on: SK-OV-3
[48] = tested on: UO-31
[49] = tested on: NCI-H226
[50] = tested on: KM12
[51] = tested on: SW-620
[52] = tested on: 786-0
[53] = tested on: SNB-75
[54] = tested on: PC-3
[55] = tested on: SR
[56] = tested on: CCRF-CEM
[57] = tested on: A498
[58] = tested on: Malme-3M

Measured: GI50

COc1cc(-c2cc(=O)c3cc4c(cc3[nH]2)OCO4)cc(OC)c1O
inactive: [1] > 10 µM | [2] > 10 µM | [3] > 10 µM | [4] > 10 µM | [5] > 10 µM | [6] > 10 µM | [7] > 10 µM | [8] > 10 µM | [9] > 10 µM | [10] > 10 µM | [11] > 10 µM | [12] > 10 µM | [13] > 10 µM | [14] > 10 µM | [15] > 10 µM | [16] > 10 µM | [17] > 10 µM | [18] > 10 µM | [19] > 10 µM | [20] > 10 µM | [21] > 10 µM | [22] > 10 µM | [23] > 10 µM | [24] > 10 µM | [25] > 10 µM | [26] > 10 µM | [27] > 10 µM | [28] > 10 µM | [29] > 10 µM | [30] > 10 µM | [31] > 10 µM | [32] > 10 µM | [33] > 10 µM | [34] > 10 µM | [35] > 10 µM | [36] > 10 µM | [38] > 10 µM | [39] > 10 µM | [40] > 10 µM | [41] > 10 µM | [42] > 10 µM | [43] > 10 µM | [44] > 10 µM | [45] > 10 µM | [46] > 10 µM | [47] > 10 µM | [48] > 10 µM | [49] > 10 µM | [50] > 10 µM | [51] > 10 µM | [52] > 10 µM | [53] > 10 µM | [54] > 10 µM | [55] > 10 µM | [56] > 10 µM
> 10 µM: [37]

CCCCN/N=N/c1cn(C2OC(CO)C(O)C2O)c(=O)[nH]c1=O (stereo not drawn)
inactive: [1] > 100 µM | [2] > 100 µM | [3] > 100 µM | [4] > 100 µM | [5] > 100 µM | [6] > 100 µM | [7] > 100 µM | [8] > 100 µM | [57] > 100 µM | [9] > 100 µM | [10] > 100 µM | [11] > 100 µM | [13] > 100 µM | [14] > 100 µM | [15] > 100 µM | [16] > 100 µM | [17] > 100 µM | [18] > 100 µM | [19] > 100 µM | [20] > 100 µM | [21] > 100 µM | [22] > 100 µM | [23] > 100 µM | [24] > 100 µM | [25] > 100 µM | [27] > 100 µM | [58] > 100 µM | [29] > 100 µM | [30] > 100 µM | [31] > 100 µM | [32] > 100 µM | [33] > 100 µM | [34] > 100 µM | [35] > 100 µM | [36] > 100 µM | [38] > 100 µM | [40] > 100 µM | [41] > 100 µM | [42] > 100 µM | [43] > 100 µM | [44] > 100 µM | [45] > 100 µM | [46] > 100 µM | [47] > 100 µM | [49] > 100 µM | [50] > 100 µM | [51] > 100 µM | [52] > 100 µM | [54] > 100 µM | [55] > 100 µM | [56] > 100 µM
> 100 µM: [37]

COc1cc2c(c(O)c1OC)C(=O)C(Cc1ccc(O)cc1)CO2 (stereo not drawn)
inactive: [1] 75.7 µM | [2] 5.46 µM | [3] 2.33 µM | [4] 46.8 µM | [5] 25.3 µM | [6] 26.5 µM | [7] 10.5 µM | [8] 44.7 µM | [9] 35.2 µM | [10] 16.1 µM | [11] 23 µM | [12] 30.3 µM | [13] 42.5 µM | [14] 48.3 µM | [15] 20.3 µM | [16] 30.8 µM | [18] 73.6 µM | [19] 54.2 µM | [20] 32.4 µM | [21] 38.2 µM | [22] 34.1 µM | [23] 22.9 µM | [24] 3.27 µM | [25] 35.3 µM | [26] 16.6 µM | [27] 27.2 µM | [58] 19.9 µM | [28] 29.5 µM | [29] 29 µM | [31] 13 µM | [32] 9.4 µM | [33] 29 µM | [34] 23.8 µM | [35] 32.7 µM | [36] 29.2 µM | [38] 23.1 µM | [39] 13.1 µM | [40] 14.4 µM | [42] 32.4 µM | [43] 2.36 µM | [44] 36.3 µM | [45] > 100 µM | [46] 39.8 µM | [47] 18.4 µM | [48] 40.6 µM | [49] 37.9 µM | [50] 23.4 µM | [51] 30.1 µM | [52] 32.9 µM | [53] 18.4 µM | [54] 33.2 µM | [55] 4.67 µM | [56] 24.5 µM
11.2 µM: [37]

CC(O)CC(O)(C(F)(F)F)C(F)(F)F (stereo not drawn)
> 10 µM: [37]
inactive: [1] > 10 µM | [2] > 10 µM | [3] > 10 µM | [4] > 10 µM | [5] > 10 µM | [6] > 10 µM | [7] > 10 µM | [8] > 10 µM | [57] > 10 µM | [9] > 10 µM | [10] > 10 µM | [11] > 10 µM | [13] > 10 µM | [15] > 10 µM | [16] > 10 µM | [17] > 10 µM | [18] > 10 µM | [19] > 10 µM | [20] > 10 µM | [21] > 10 µM | [22] > 10 µM | [23] > 10 µM | [24] > 10 µM | [25] > 10 µM | [26] > 10 µM | [27] > 10 µM | [58] > 10 µM | [28] > 10 µM | [29] > 10 µM | [30] > 10 µM | [31] > 10 µM | [32] > 10 µM | [33] > 10 µM | [34] > 10 µM | [35] > 10 µM | [36] > 10 µM | [38] > 10 µM | [39] > 10 µM | [40] > 10 µM | [41] > 10 µM | [42] > 10 µM | [43] > 10 µM | [44] > 10 µM | [45] > 10 µM | [46] > 10 µM | [47] > 10 µM | [48] > 10 µM | [49] > 10 µM | [50] > 10 µM | [51] > 10 µM | [52] > 10 µM | [53] > 10 µM | [54] > 10 µM | [55] > 10 µM | [56] > 10 µM
